pIC50: −log10 of the molar value. Structures can show the parent of a compound that is named as a salt.
Key:
[1] = test system: tonic hindlimb extension in the MEST test in mice; assay: Maximal electroshock seizure threshold (MEST) test; assay type: in vivo
Description: A sinusoidal current alternation was delivered via saline-soaked transcorneal electrodes. Before stimulation, an ocular anesthetic (1% tetracaine hydrochloride solution obtained from Sigma-Aldrich, St. Louis, MO, USA) was administered to each eye of the mice. During stimulation, the mice were manually immobilized in a hand for 3–5 s and immediately relocated to a transparent box for behavioral observation after the stimulation. Hindlimb tonic extension was taken as an end point. Two experimental approaches were employed: (1) the maximal electroshock seizure threshold (MEST) test at varied current intensities and (2) the maximal electroshock (MES) test at a fixed current intensity.
In the MEST test, seizure thresholds were determined using the “up-and-down” method described by Kimball et al.[28] […] Each mouse was stimulated only once.

[2] = Metabolic stability in human liver microsomes (HLMs); assay type: in vitro ADME
Description: (§1) A series of in vitro ADME-Tox tests were performed for SSR504734 in order to estimate its drugability. The ADME-Tox parameters including permeability, plasma protein binding, metabolic stability, neurotoxicity, and hepatotoxicity were carried out as described previously.[31],[32] The ability of SSR504734 to penetrate through the biological membrane by passive diffusion was estimated by the Gentest Precoated PAMPA Plate System (Corning, Tewksbury, MA) and expressed as the permeability coefficient (Pe). The protein binding analysis was performed by using the commercial TRANSIL^XL PPB test, which mimics in vitro physiological plasma conditions where human serum albumin (HAS) and alpha-1-acid glycoprotein AGP are present in a 24:1 ratio. The human metabolism of SSR504734 was studied using human liver microsomes (HLMs) provided by Sigma-Aldrich. The hepatotoxicity and neurotoxicity were estimated in cellular models with the use of hepatoma HepG2 and neuroblastoma SH-SY5Y cell lines to perform the preliminary safety tests. The cells were incubated with SSR504734 at the concentration range of 0.1–100 μM. 1 μM cytostatic drug doxorubicin (DX) was used as the reference.

[3] = test system: 6 Hz-induced psychomotor seizures in mice; assay: 6 Hz-induced psychomotor seizure threshold test; assay type: in vivo; conditions: SSR504734 any of the doses tested, VPA 150 mg/kg
Description: Psychomotor seizures were induced through the application of rectangular pulses (0.2 ms width; 6 pulses per second) for 3 s using a Grass model CCU1 constant current unit coupled to a Grass S48 stimulator (Grass Technologies, Warwick, RI, USA). Stimuli were delivered via saline-soaked transcorneal electrodes. An ocular anesthetic (1% tetracaine hydrochloride) was administered on the animal’s corneas. Mice were restrained manually during stimulation and placed in transparent box immediately for behavioral observation. 6 Hz-induced seizures were characterized by head-nodding, chewing, eye-blinking, twitching of the vibrissae, rearing, stunned posture, forelimb clonus, and Straub tail. The absence of the described features or the return to normal exploratory behavior within 20 s poststimulation was considered as the absence of seizures. The 6 Hz seizure threshold test were conducted on groups of 20 animals stimulated with different current intensities by using the “up-and-down” method described by Kimball et al.[28]
The seizure threshold was quantified as the median current strength (CS50 value with confidence limits for 95% probability), predicting the induction of psychomotor seizures in 50% of the tested animals.

[4] = Neurotoxicity, SH-SY5Y cell viability; assay type: cell-based; conditions: human, neuroblastoma SH-SY5Y cells; 50 μM, 72 h
Description: as §1
(§2) Figure 8 Effect of cytostatic drug doxorubicin (DX) and SSR504734 on (A) hepatoma HepG2 and (B) neuroblastoma SH-SY5Y cell lines viability after 72 h of incubation at 37 °C, 5% CO2. Data are expressed as means ± SD. Statistical analysis: ****p < 0.0001 vs negative control −1% DMSO in growth media (one-way ANOVA, followed by Dunnett’s post hoc test).
(§3) Figure S8. The effect of cytostatic drug doxorubicin and SSR504734 on (A) hepatoma
(§4) HepG2 and (B) neuroblastoma SH-SY5Y cell line viability after 72 h of incubation at 37 °C,
(§5) 5% CO2. The IC50 values were calculated by GraphPad Prism 8.0.
(§6) (1 picture or pasted object on this page, not shown here)

hepatoma HepG2 cells = assay: Hepatotoxicity, HepG2 cell viability; assay type: cell-based
Description: as §1, §2, §3, §4, §5, §6

[5] = Grip strength test (neuromuscular strength); assay type: in vivo, mice
Description: The effect of SSR504734 on neuromuscular strength was determined using the grip-strength apparatus (BioSeb, Chaville, France). The apparatus consists of a steel wire grid of 8 × 8 cm, connected to an isometric force transducer. Each mouse was held by the tail, allowing it to grasp the grid with its forepaws only and steadily pulled back until it released the grid. The maximum grip strength value (in newtons; N) was measured three times for each animal. The mean force was normalized to body weight and expressed in mN/g ± SD for each experimental group. In order to minimize the number of animals used, a grip-strength test was carried out shortly before seizure tests.
Table S2. Time-course effect of SSR5504734 on neuromuscular strength and motor […]
Group Neuromuscular strength Impairment of motor
SSR504734 was dissolved in normal saline and injected i.p. at the dose of 30 mg/kg. Control animals received saline. The data are expressed as the mean ± SD of grip strengths measured in millinewtons per gram of mouse body weight (mN/g) from the grip-strength test assessing […]
coordination impairment in the chimney test. Each experimental group consisted of 12 animals. The grip-strength test results were analyzed using a one-way ANOVA with Dunnett’s post hoc test, while the data from the chimney test were statistically evaluated using Fisher’s exact probability test. *p<0.05 vs. control group.
Table S3. Effect of acute and 14-day treatment with SSR504734 on neuromuscular strength and motor coordination in mice
In acute studies, SSR504734 and sodium valproate (VPA; positive control) were injected i.p.
60 and 15 min before the test, respectively. In subchronic studies, SSR504734 and VPA were injected i.p. every 24 h for 14 days. The last administration was made 60 and 15 min before the tests, respectively. Control animals received saline. Each experimental group consisted of 12 animals. The grip-strength test results were analyzed using a one-way ANOVA with […]
Fisher’s exact probability test.

With `O=C(NC(c1ccccc1)C1CCCCN1)c1cccc(C(F)(F)F)c1Cl` [SSR504734, 2-chloro-N-[(S)-phenyl[(2S)-piperidin-2-yl]methyl]-3-trifluoromethyl benzamide monohydrochloride] the “fold increase of seizure threshold (CS50), time-course” value ([1]; 30 mg/kg i.p., 60 and 120 min after administration, vs control) was ~1.3 fold, the “effect on seizure threshold (CS50), time-course” value ([1]; 30 mg/kg i.p., at 30, 60, 120 and 240 min) was “significantly raised the seizure threshold” and the “fold increase in CC50 value” ([1]; 14-day repeated treatment, 30 mg/kg i.p.) was 1.2 fold. The “effect on seizure threshold” value ([1]; 14-day repeated treatment, 3 and 10 mg/kg i.p.) was “no changes in seizure threshold”, the “effect on threshold for tonic hindlimb extension” value ([1]; acute, 10 mg/kg i.p., 60 min before test) was “ineffective” and the “fold increase of current intensity necessary to induce hindlimb tonus” value ([1]; acute, 30 mg/kg i.p., 60 min before test) was 1.2 fold. The “fold increase of current intensity necessary to induce hindlimb tonus” value ([1]; acute, 50 mg/kg i.p., 60 min before test) was 1.6 fold, the metabolized ([2]; 120 min incubation with HLMs, UPLC analysis) was 5% and the remaining at 2 h ([2]; after 120 min of incubation with human liver microsomes) was 94.7%. The “metabolic pathway, metabolite M1” value ([2]; after incubation with HLMs) was “hydroxylation, oxidation, and dehydrogenation”, the “metabolic pathway, metabolite M2” value ([2]; after incubation with HLMs) was “dehydrogenation” and the “metabolic pathway, metabolite M3” value ([2]; after incubation with HLMs) was “oxidation”. The “effect on current intensity necessary to induce psychomotor seizures” value ([3]; 14-day administration i.p.) was “no statistically significant effect”, the “effect on current intensity necessary to induce psychomotor seizures” value ([3]; single administration i.p.) was “no statistically significant effect” and the viability at 72 h, 50 µM [4] was ~30%. The HepG2 cell viability (hepatoma HepG2 cells; 25 μM and higher concentrations, 72 h) was “significant decrease”, the pIC50 (hepatoma HepG2 cells; Homo sapiens, HepG2, 72 h of incubation) was 4.83 and the “hepatotoxic properties (HepG2 viability)” value (hepatoma HepG2 cells; concentration range of 1–10 μM, 72 h) was “did not exhibit hepatotoxic properties”. It also gave a Neuromuscular strength ([5]; 30 mg/kg i.p., 30 min) of 30.33 ± 5.38 mN/g, a Neuromuscular strength ([5]; 30 mg/kg i.p., 60 min) of 33.63± 4.94 mN/g and a Neuromuscular strength ([5]; 30 mg/kg i.p., 120 min) of 33.49 ± 3.76 mN/g. For the same compound, the Neuromuscular strength ([5]; 30 mg/kg i.p., 240 min) was 32.13 ± 3.42 mN/g, the Neuromuscular strength ([5]; 14-day treatment, 3 mg/kg i.p.) was 25.02 ± 5.35 mN/kg and the Neuromuscular strength ([5]; 14-day treatment, 10 mg/kg i.p.) was 23.48 ± 5.98 mN/kg. The Neuromuscular strength ([5]; 14-day treatment, 30 mg/kg i.p.) was 27.76 ± 6.00 mN/kg, the Neuromuscular strength ([5]; acute treatment, 10 mg/kg i.p.) was 31.15 ± 5.55 mN/kg and the Neuromuscular strength ([5]; acute treatment, 30 mg/kg i.p.) was 31.00 ± 9.46 mN/kg. For the same compound, the Neuromuscular strength ([5]; acute treatment, 50 mg/kg i.p.) was 30.31 ± 5.08 mN/kg.
